Structures can show the parent of a compound that is named as a salt.
Row | melting point [°C] | SMILES
1 | 168 to 170 | N[C@H](Cc1c[nH]c2ccccc12)C(=O)NC1(C(=O)O)Cc2ccc(-c3ccc(Cl)cc3)cc2C1 (stereo partly drawn) (as salt: hydrochloride) [Example B122, 5-(4-Chlorophenyl)-2-(D-tryptophylamino)indan-2-carboxylic acid hydrochloride]
2 | 284 to 285 | Cc1nc2ccccc2n1CC(=O)NC1(C(=O)O)Cc2ccc(-c3ccc(Cl)cc3)cc2C1 (stereo not shown) (as salt: hydrochloride) [Example B159, 5-(4-Chlorophenyl)-2-{[(2-methyl-1H-benzimidazol-1-yl)acetyl]amino}indan-2-carboxylic acid hydrochloride]
3 | 288 | O=C(Cc1cccnc1)NC1(C(=O)O)Cc2ccc(-c3ccc(Cl)cc3)cc2C1 (stereo not shown) (as salt: hydrochloride) [Example B175, 5-(4-Chlorophenyl)-2-[(pyridin-3-ylacetyl)amino]indan-2-carboxylic acid hydrochloride]
4 | 147 to 149 | Cc1c(C(=O)NC(Cc2ccc(OCc3ccc(F)cc3)cc2)C(=O)O)oc2cc(-c3ccc(Cl)cc3)ccc12 (racemic) [Example C117, N-{[6-(4-Chlorophenyl)-3-methyl-1-benzofuran-2-yl]carbonyl}-O-(4-fluorobenzyl)-DL-tyrosine]
5 | 211 to 212 | O=C(Cc1ccc(OCc2ccccc2)cc1)Nc1c(C(=O)O)oc2cc(-c3ccc(Cl)cc3)ccc12 [Example A23, 3-({[4-(Benzyloxy)phenyl]acetyl}amino)-6-(4-chlorophenyl)-1-benzofuran-2-carboxylic acid]
6 | 205 to 206 | O=C(Cc1ccc(OCc2ccc(F)cc2)cc1)Nc1c(C(=O)O)oc2cc(-c3ccc(Cl)cc3)ccc12 [Example A24, 6-(4-Chlorophenyl)-3-[({4-[(4-fluorobenzyl)oxy]phenyl}acetyl)amino]-1-benzofuran-2-carboxylic acid]
7 | 209 to 210 | O=C(CCc1ccc(OCc2ccccc2)cc1)Nc1c(C(=O)O)oc2cc(-c3ccc(Cl)cc3)ccc12 [Example A25, 3-({3-[4-(Benzyloxy)phenyl]propanoyl}amino)-6-(4-chlorophenyl)-1-benzofuran-2-carboxylic acid]
8 | 205 to 207 | O=C(CSc1nc2ccccc2s1)NC1(C(=O)O)Cc2ccc(-c3ccc(Cl)cc3)cc2C1 (stereo not shown) [Example B117, 2-{[(1,3-Benzothiazol-2-ylthio)acetyl]amino}-5-(4-chlorophenyl)indan-2-carboxylic acid]
9 | 247 | O=C(CN1CCN(c2ccccc2)CC1)NC1(C(=O)O)Cc2ccc(-c3ccc(Cl)cc3)cc2C1 (stereo not shown) [Example B124, 5-(4-Chlorophenyl)-2-{[(4-phenylpiperazine-1-yl)acetyl]amino)indan-2-carboxylic acid]
10 | 245 | O=C(Cc1ccccc1OCc1ccccc1)NC1(C(=O)O)Cc2ccc(-c3ccc(Cl)cc3)cc2C1 (stereo not shown) [Example B126, 2-({[2-(Benzyloxy)phenyl]acetyl}amino)-5-(4-chlorophenyl)indan-2-carboxylic acid]

Row | SMILES | melting point [°C]
11 | CC(C)(C)OC(=O)NCCC(=O)NC1(C(=O)O)Cc2ccc(-c3ccc(Cl)cc3)cc2C1 (stereo not shown) [Example B118, 2-{[3-(tert-Butoxycarbonylamino)propionyl]amino}-5-(4-chlorophenyl) indan-2-carboxylic acid] | 212 to 214
12 | CC(C)(C)OC(=O)N[C@H](Cc1c[nH]c2ccccc12)C(=O)NC1(C(=O)O)Cc2ccc(-c3ccc(Cl)cc3)cc2C1 (stereo partly drawn) [Example B119, 2-{[N-(tert-Butoxycarbonyl)-D-tryptophyl]amino}-5-(4-chlorophenyl)indan-2-carboxylic acid] | 158
13 | CC(C)(C)OC(=O)N[C@@H](Cc1ccccc1)C(=O)NC1(C(=O)O)Cc2ccc(-c3ccc(Cl)cc3)cc2C1 (stereo partly shown) [Example B120, 2-{[N-(tert-Butoxycarbonyl)phenylalanyl]amino}-5-(4-chlorophenyl)indan-2-carboxylic acid] | 140 to 142

From patent publication US20100130737A1, “Regulating Agent of GPR34 Receptor Function” (TAKEDA PHARMACEUTICAL COMPANY LIMITED, priority 2005, published 2010)
